Test results published in PubChem BioAssay AID1259407 (Chemical Carcinogenesis Research Information System (CCRIS), 2018).
Active and inactive are the calls of the source. The rule behind the calls is not given here.

Test system: CCRIS mutagenicity, Ames/micronucleus/aberration tests
Assay: CCRIS mutagenicity studies
[1] = Test System: AMES SALMONELLA TYPHIMURIUM, Strain/Indicator: TA98, Metabolic Activation: MOUSE, LIVER, S-9, Method: STANDARD PLATE
[2] = Test System: AMES SALMONELLA TYPHIMURIUM, Strain/Indicator: TA100, Metabolic Activation: NONE, Method: STANDARD PLATE
[3] = Test System: AMES SALMONELLA TYPHIMURIUM, Strain/Indicator: TA1535, Metabolic Activation: NONE, Method: STANDARD PLATE

With Nc1ccc(Cl)c(N)c1 the mutagenic call (End Point: IN VITRO CHROMOSOMAL ABERRATIONS, Test System: CHL CELLS, Metabolic Activation: RAT, LIVER, S-9, SODIUM PHENOBARBITAL AND 5,6-BENZOFLAVONE) was “active; positive (structural changes)”, the mutagenic call (End Point: IN VITRO CHROMOSOMAL ABERRATIONS, Test System: CHO-LB CELLS, Metabolic Activation: RAT, LIVER, S-9, AROCLOR 1254) was “inactive; negative” and the mutagenic call (Test System: AMES SALMONELLA TYPHIMURIUM, Strain/Indicator: TA98, Metabolic Activation: HAMSTER, LIVER, S-9, AROCLOR 1254, Method: STANDARD PLATE) was “active; positive”. The mutagenic call (Test System: AMES SALMONELLA TYPHIMURIUM, Strain/Indicator: TA98, Metabolic Activation: HAMSTER, LIVER, S-9, Method: STANDARD PLATE) was “active; positive”, the mutagenic call (Test System: AMES SALMONELLA TYPHIMURIUM, Strain/Indicator: TA98, Metabolic Activation: MOUSE, LIVER, S-9, AROCLOR 1254, Method: STANDARD PLATE) was “active; positive” and the mutagenic call [1] was “active; positive”. The mutagenic call (Test System: AMES SALMONELLA TYPHIMURIUM, Strain/Indicator: TA98, Metabolic Activation: RAT, LIVER, S-9, AROCLOR 1254, Method: STANDARD PLATE) was “active; positive”, the mutagenic call (Test System: AMES SALMONELLA TYPHIMURIUM, Strain/Indicator: TA98, Metabolic Activation: RAT, LIVER, S-9, Method: STANDARD PLATE) was “active; positive” and the mutagenic call (Test System: AMES SALMONELLA TYPHIMURIUM, Strain/Indicator: TA100, Metabolic Activation: HAMSTER, LIVER, S-9, AROCLOR 1254, Method: STANDARD PLATE) was “active; positive”. For the same compound, the mutagenic call [2] was “inactive; negative”, the mutagenic call (Test System: AMES SALMONELLA TYPHIMURIUM, Strain/Indicator: TA100, Metabolic Activation: RAT, LIVER, S-9, AROCLOR 1254, Method: STANDARD PLATE) was “active; positive” and the mutagenic call (Test System: AMES SALMONELLA TYPHIMURIUM, Strain/Indicator: TA1535, Metabolic Activation: HAMSTER, LIVER, S-9, AROCLOR 1254, Method: STANDARD PLATE) was “inactive; negative”. The mutagenic call (Test System: AMES SALMONELLA TYPHIMURIUM, Strain/Indicator: TA1535, Metabolic Activation: HAMSTER, LIVER, S-9, Method: STANDARD PLATE) was “inactive; negative”, the mutagenic call (Test System: AMES SALMONELLA TYPHIMURIUM, Strain/Indicator: TA1535, Metabolic Activation: MOUSE, LIVER, S-9, AROCLOR 1254, Method: STANDARD PLATE) was “inactive; negative” and the mutagenic call (Test System: AMES SALMONELLA TYPHIMURIUM, Strain/Indicator: TA1535, Metabolic Activation: MOUSE, LIVER, S-9, Method: STANDARD PLATE) was “inactive; negative”. The mutagenic call [3] was “inactive; negative”, the mutagenic call (Test System: AMES SALMONELLA TYPHIMURIUM, Strain/Indicator: TA1535, Metabolic Activation: RAT, LIVER, S-9, Method: STANDARD PLATE) was “inactive; negative” and the mutagenic call (Test System: AMES SALMONELLA TYPHIMURIUM, Strain/Indicator: TA1537, Metabolic Activation: HAMSTER, LIVER, S-9, AROCLOR 1254, Method: STANDARD PLATE) was “active; positive”. For the same compound, the mutagenic call (Test System: AMES SALMONELLA TYPHIMURIUM, Strain/Indicator: TA1537, Metabolic Activation: HAMSTER, LIVER, S-9, Method: STANDARD PLATE) was “active; positive”, the mutagenic call (Test System: AMES SALMONELLA TYPHIMURIUM, Strain/Indicator: TA1537, Metabolic Activation: MOUSE, LIVER, S-9, AROCLOR 1254, Method: STANDARD PLATE) was “active; positive” and the mutagenic call (Test System: AMES SALMONELLA TYPHIMURIUM, Strain/Indicator: TA1537, Metabolic Activation: NONE, Method: STANDARD PLATE) was “inactive; negative”. The mutagenic call (Test System: AMES SALMONELLA TYPHIMURIUM, Strain/Indicator: TA1537, Metabolic Activation: RAT, LIVER, S-9, AROCLOR 1254, Method: STANDARD PLATE) was “active; positive”, the mutagenic call (Test System: AMES SALMONELLA TYPHIMURIUM, Strain/Indicator: TA1537, Metabolic Activation: RAT, LIVER, S-9, Method: STANDARD PLATE) was “inactive; negative” and the mutagenic call (Test System: AMES SALMONELLA TYPHIMURIUM, Strain/Indicator: TA1538, Metabolic Activation: HAMSTER, LIVER, S-9, AROCLOR 1254, Method: STANDARD PLATE) was “active; positive”. For the same compound, the mutagenic call (Test System: AMES SALMONELLA TYPHIMURIUM, Strain/Indicator: TA1538, Metabolic Activation: HAMSTER, LIVER, S-9, Method: STANDARD PLATE) was “active; positive”, the mutagenic call (Test System: AMES SALMONELLA TYPHIMURIUM, Strain/Indicator: TA1538, Metabolic Activation: MOUSE, LIVER, S-9, AROCLOR 1254, Method: STANDARD PLATE) was “active; positive” and the mutagenic call (Test System: AMES SALMONELLA TYPHIMURIUM, Strain/Indicator: TA1538, Metabolic Activation: MOUSE, LIVER, S-9, Method: STANDARD PLATE) was “active; positive”. The mutagenic call (Test System: AMES SALMONELLA TYPHIMURIUM, Strain/Indicator: TA1538, Metabolic Activation: RAT, LIVER, S-9, AROCLOR 1254, Method: STANDARD PLATE) was “active; positive”, the mutagenic call (Test System: AMES SALMONELLA TYPHIMURIUM, Strain/Indicator: TA1538, Metabolic Activation: RAT, LIVER, S-9, Method: STANDARD PLATE) was “active; positive” and the mutagenic call (Test System: E. COLI, Strain/Indicator: WP2 UVRA, Metabolic Activation: HAMSTER, LIVER, S-9, AROCLOR 1254, Method: STANDARD PLATE) was “inactive; negative”. The mutagenic call (Test System: E. COLI, Strain/Indicator: WP2 UVRA, Metabolic Activation: HAMSTER, LIVER, S-9, Method: STANDARD PLATE) was “inactive; negative”, the mutagenic call (Test System: E. COLI, Strain/Indicator: WP2 UVRA, Metabolic Activation: MOUSE, LIVER, S-9, AROCLOR 1254, Method: STANDARD PLATE) was “inactive; negative” and the mutagenic call (Test System: E. COLI, Strain/Indicator: WP2 UVRA, Metabolic Activation: MOUSE, LIVER, S-9, Method: STANDARD PLATE) was “inactive; negative”. For the same compound, the mutagenic call (Test System: E. COLI, Strain/Indicator: WP2 UVRA, Metabolic Activation: NONE, Method: STANDARD PLATE) was “inactive; negative”, the mutagenic call (Test System: E. COLI, Strain/Indicator: WP2 UVRA, Metabolic Activation: RAT, LIVER, S-9, AROCLOR 1254, Method: STANDARD PLATE) was “inactive; negative” and the mutagenic call (Test System: E. COLI, Strain/Indicator: WP2 UVRA, Metabolic Activation: RAT, LIVER, S-9, Method: STANDARD PLATE) was “inactive; negative”.
COc1c(C=O)c(O)cc2c1C(=O)c1ccccc1C2=O was tested, and the mutagenic call (Test System: AMES SALMONELLA TYPHIMURIUM, Strain/Indicator: TA98, Metabolic Activation: NONE, Method: PREINCUBATION) was “inactive; negative”, the mutagenic call (Test System: AMES SALMONELLA TYPHIMURIUM, Strain/Indicator: TA98, Metabolic Activation: RAT, LIVER, S-9, PCB, Method: PREINCUBATION) was “inactive; negative” and the mutagenic call (Test System: AMES SALMONELLA TYPHIMURIUM, Strain/Indicator: TA100, Metabolic Activation: NONE, Method: PREINCUBATION) was “inactive; negative”. For the same compound, the mutagenic call (Test System: AMES SALMONELLA TYPHIMURIUM, Strain/Indicator: TA100, Metabolic Activation: RAT, LIVER, S-9, PCB, Method: PREINCUBATION) was “inactive; negative”.
With C=CCCCCCCCCCCC the mutagenic call [1] was “inactive; negative”, the mutagenic call (Test System: AMES SALMONELLA TYPHIMURIUM, Strain/Indicator: TA98, Metabolic Activation: NONE, Method: STANDARD PLATE) was “inactive; negative” and the mutagenic call (Test System: AMES SALMONELLA TYPHIMURIUM, Strain/Indicator: TA100, Metabolic Activation: MOUSE, LIVER, S-9, Method: STANDARD PLATE) was “inactive; negative”. For the same compound, the mutagenic call [2] was “inactive; negative”, the mutagenic call [3] was “inactive; negative” and the mutagenic call (Test System: AMES SALMONELLA TYPHIMURIUM, Strain/Indicator: TA1538, Metabolic Activation: NONE, Method: STANDARD PLATE) was “inactive; negative”.
